Measured values: patent publication US4132786A, “N-Substituted 2-methoxybenzenesulphonamides and medicaments containing them” (priority 1975, dated 1979)

Key:
[1] = Determination of acute toxicity (LD50), intravenous, male mice; conditions: mouse, in vivo, 5 mice per batch, 6 days
Experimental: The acute toxicity of the compounds according to the invention was determined on male mice whose weight varied between 24 and 26 g. The compounds are administered intravenously in solution form and at the rate of 0.5 ml per 20 g of body weight, by varying the concentration of the injected solution.
Each compound is tested on a batch of 5 mice which are examined for 6 days following the injection.

apomorphine = experiment: Determination of central antiemetic activity (apomorphine vomiting); assay type: in vivo, Beagle dogs; conditions: 1 mg/kg intramuscular; for Antiemetic effect /22 (average number of vomitings for two dogs): 30 min before 0.1 mg/kg apomorphine s.c., counted 30 min, controls 22
Experimental: These tests were carried out on adult Beagle dogs with a weight of 7 to 12 kg and which had gone without food for 18 hours. The dogs receive a dose of 1 mg/kg (0.1 ml/kg) of the compound according to the invention by intramuscular injection. 30 minutes later, 0.1 mg/kg (0.1 ml/kg) of apomorphine is administered to them subcutaneously as a central compound. The vomitings during the 30 minutes following the injection of apomorphine are counted. For two dogs serving as controls and receiving only the apomorphine 22 vomitings were counted. […] The results were confirmed by alternate tests by resuming these tests and interchanging the control dogs and the dogs on which the compounds according to the invention were previously tried.
The results relating to the toxicity and the central antiemetic activity of the compounds given hereinbefore are stated clearly in the following Table. The antiemetic activity is expressed in the form of the average number of vomitings for two dogs and is to be compared with the number 22 obtained with the control animals.

cornea of rabbits = experiment: Local anesthetic activity by Regnier's method; assay type: in vivo; conditions: in words
Experimental: This activity was measured on the cornea of rabbits by Regnier's method, described on particular in "Principes de la pharmacodynamie," pp. 204-206, Masson (1959).

pentetrazole = experiment: Anticonvulsive activity (pentetrazole convulsions); assay type: in vivo, mice; conditions: 50 mg/kg i.p., pentetrazole 100 mg/kg i.p.
Experimental: The compounds according to the invention were tested for their anticonvulsive activity by following the procedure described hereinafter.
Each compound is administered intraperitoneally to a batch of mice at the rate of 50 mg of compound per kilogram of body weight. 30 minutes later the mice receive, still intraperitoneally, 100 mg/kg of pentetrazole.
The time of appearance of the first convulsions (clonic convulsions), that of the tonic convulsions (hyperextension) and the death of the mice is then measured. The injections of pentetrazole are carried out comparatively on control animals.

[2] = Solubility remark in the Toxicity column; assay type: physicochemical; conditions: in words

| Structure (SMILES) | LD50 at 144 h [1] [mg/kg] | Antiemetic effect /22 (average number of vomitings for two dogs) (apomorphine) [vomitings] | also measured |
| --- | --- | --- | --- |
| CCN(CC)CCNS(=O)(=O)c1ccc([N+](=O)[O-])cc1OC | > 100 | 15 |  |
| CCN(CC)CCNS(=O)(=O)c1ccc(N)cc1OC [Ref. b, 2-methoxy-4-amino-N-(2-diethylaminoethyl)benzenesulphonamide] | > 100 | 22 | local anesthetic action (cornea of rabbits): a certain local anesthetic action |
| CCN(CC)CCCNS(=O)(=O)c1ccc(N)cc1OC [Ref. c, 2-methoxy-4-amino-N-(3-diethylaminopropyl)benzenesulphonamide] | 50 to 100 | 17 | local anesthetic action (cornea of rabbits): a certain local anesthetic action |
| COc1cc([N+](=O)[O-])c(Cl)cc1S(=O)(=O)NCCN1CCCCC1 [Ref. d] | > 100 | 16 |  |
| CCN(CC)CCCNS(=O)(=O)c1cc(Cl)c([N+](=O)[O-])cc1OC [Ref. e] | > 100 |  |  |
| CCN(CC)CCNS(=O)(=O)c1cc(Cl)c(N)cc1OC [Ref. f] | 50 to 100 | 13 |  |
| COc1cc(N)c(Cl)cc1S(=O)(=O)NCCN1CCCCC1 [Ref. g] | 50 to 100 | 13 |  |
| COc1cc(N)c(Cl)cc1S(=O)(=O)NCCCN(C)C [Ref. h] | > 100 | 9 |  |
| CCN(CC)CCCNS(=O)(=O)c1cc(Cl)c(N)cc1OC [Ref. i, 2-methoxy-4-amino-5-chloro-N-(3-diethylaminopropyl)benzenesulphonamide] | 117 | 3 | mice dead at the end of the test (of five in the batch) (pentetrazole; of the five mice): three; lethalness (pentetrazole; in words): a decrease in the lethalness; antiemetic activity (apomorphine; in words, apomorphine 0.1 mg/kg s.c.): excellent |
| COc1cc(N)c(Cl)cc1S(=O)(=O)NCCCN1CCOCC1 [Ref. j] | > 100 | 22 |  |
| COc1ccc(Cl)cc1S(=O)(=O)NCCN(C)C [Ref. k] | > 100 | 22 |  |
| CCN(CC)CCNS(=O)(=O)c1cc(Cl)ccc1OC [Ref. l] | > 100 | 8 |  |
| CCN(CC)CCCNS(=O)(=O)c1cc(Cl)ccc1OC [Ref. m] |  | 12 | solubility (printed in Toxicity column) [2]: insoluble |
| COc1ccc(S(N)(=O)=O)cc1S(=O)(=O)NCCN(C)C [Ref. n] | > 100 |  |  |
| COc1cc(N)c(Cl)cc1S(=O)(=O)NCCCN1CCCCC1 [Ref. o] | 80 to 100 |  |  |
